Results: patent publication US20020162125A1, “Methods and compositions for the modulation of neurogenic inflammatory pain and physical opiate withdrawal” (priority 2001, published 2002)
Read-outs that look alike come from different tables or passages of the source.

Legend:
[1] = tested on: αCGRP −/− and αCGRP +/+ mice; assay: Heroin self-administration (lever press operant task); format: in vivo
Protocol: Following acquisition of stable heroin self-administration at 15.0 μg/kg/injection dose (3 consecutive sessions <+/−20% variation, >70% active lever responding), mice were allowed to self-administer heroin at each dose during two daily two-hr sessions in a Latin square dose order. After all heroin doses had been tested, saline vehicle was substituted for heroin until responding stabilized for at least 2 consecutive sessions (data points above “saline”).
All procedures involving animals described here were approved by the Service Vétérinaire of the Canton of Vaud, Lausanne, Switzerland. Six individually housed mice of each genotype (CGRP −/− and +/+) were tested during the light phase (12/12; lights on 7:00 am) in daily sessions 5 days/week. Operant chambers housed in sound-attenuating cubicles with a house light and ventilation fan were equipped with cue lights above two retractable levers, a liquid dipper, syringe pump, liquid swivel and counterbalance arm (swivel and counterbalance arms—Instech, Plymouth Meeting, Pa., USA; all other equipment—MedAssociates, Georgia, Vt., USA). A single lever press on the “active” lever raised the dipper into the cage for 10 s and illuminated the cue light above the lever during reinforcer presentation and for a 1-10 s post-reinforcer Time-out (TO) period, depending on the schedule of reinforcement. […]

[2] = tested on: αCGRP −/− and αCGRP +/+ mice; conditions: αCGRP −/− mice vs +/+, 30 min after injection
Protocol: The tail flick assay was performed with a tail flick analgesia meter from Columbus Instruments. The cut-off time of the test was 10 seconds.
Morphine or nicotine analgesia were analyzed by using tail flick and hot plate tests. The tests were performed 30 minutes after the injection of drug on αCGRP −/− and +/+ mice.

[3] = tested on: αCGRP −/− and αCGRP +/+ mice; conditions: αCGRP −/− mice vs +/+; nicotine 0.5 and 2.0 mg/kg sc; data not shown
[4] = tested on: αCGRP −/− and αCGRP +/+ mice; assay: Morphine dependence, naloxone-precipitated somatic withdrawal signs
Protocol: Morphine dependence was induced by repeated ip morphine injection for one week: day 1 and 2, 50 mg/kg; day 3 and 4, 100 mg/kg; days 5-7, 100 mg/kg twice/day; day 8, 100 mg/kg in the morning. […] The inventors noted the behavioral withdrawal symptoms (jumping, teeth chattering, tremors, paw tremors, wet dog shakes, ptosis, diarrhea) during 30 minutes after naloxone injection.

[5] = tested on: αCGRP −/− and αCGRP +/+ mice; assay: Morphine tolerance in the tail-flick assay after repeated injections; format: in vivo; conditions: αCGRP −/− vs +/+ mice; repeated ip morphine, day 1-2 50 mg/kg, day 3-4 100 mg/kg
Protocol: Daily injections ip of morphine were performed: day 1 and 2, 50 mg/kg, day 3-4, 100 mg/kg. Analgesia morphine was tested. αCGRP −/− and +/+ mice were analyzed in parallel.

CC(=O)Oc1ccc2c3c1O[C@H]1[C@@H](OC(C)=O)C=C[C@H]4[C@@H](C2)N(C)CC[C@@]341 [heroin]
intake (injections per session) at 30 μg/kg/injection vs 7.5 and 15.0 μg/kg/injection doses ([1]; both genotypes, P<0.05): differed significantly
acquisition or maintenance of self-administration ([1]; αCGRP −/− vs +/+ mice, 3.75-30 μg/kg/injection iv, FR2): did not differ

CN1CCCC1c1cccnc1 (stereo not shown) [nicotine]
analgesic effects in tail-flick (% MPE) ([2]; nicotine 0.5 and 2.0 mg/kg sc): significantly increased
analgesic effects in hot-plate test [3]: significantly increased

C=CCN1CC[C@]23c4c5ccc(O)c4O[C@H]2C(=O)CC[C@@]3(O)[C@H]1C5 [naloxone]
withdrawal signs in saline-treated control mice ([4]; naloxone 2 mg/kg ip, mutant and wild type, data not shown): did not induce any withdrawal signs
total withdrawal scores ([4]; αCGRP −/− vs +/+ mice made morphine dependent, naloxone 0.1, 0.2 and 2.0 mg/kg ip): significantly lower
frequency of each somatic sign of morphine withdrawal (e.g. jumping) ([4]; αCGRP −/− vs +/+ mice made morphine dependent, precipitated by naloxone): reduced

CN1CC[C@]23c4c5ccc(O)c4O[C@H]2[C@@H](O)C=C[C@H]3[C@H]1C5 [morphine]
progressive decrease in amplitude of antinociceptive response (tolerance), tail-flick [5]: did not differ
analgesic response in tail-flick (% MPE) ([2]; morphine 1 mg/kg ip): attenuated
analgesic response in tail-flick (% MPE) ([2]; morphine 5 mg/kg ip): to a lesser extent
